What all share (format): physicochemical
Data set [1] in a line: Solubility of α-type and β-type crystals in organic solvents and water (USP 25 method). The settings on record: for Solvent amount (ml) required to solve 1 g of compound (1): 25° C. within 30 minutes. The protocol:
(§1) The results are shown in Tables 5 to 8. • (1) Test method:
(§2) The solubility in organic solvents and buffer solutions (Britton-Robinson Buffer: ionic strength (I)=0.3) was examined.
(§3) Specifically, according to the method described in USP 25 (U.S. PHARMACOPEIA 25(USP25), p 8, General Notices, Solubility), crystalline N-(3-chloro-1H-indol-7-yl)-4-sulfamoylbenzenesulfonamide was evaluated in terms of solubility in various organic solvents and Britton-Robinson buffers (pH 3, 5, 7, 9, and 11; I=0.3). The amount of each solvent was recorded that was required to solve a 10-mg sample of (N-(3-chloro-1H-indol-7-yl)-4-sulfamoylbenzenesulfonamide) at 25° C. within 30 minutes. In this study, the container was vigorously shaken for 30 seconds every 5 minutes, and the solubility was visually checked. • (2) Results: […]

Data set [2] can be described thus: Solubility of α-type and β-type crystals in Britton-Robinson buffers (I=0.3). The note with it: for Solvent amount (ml) required to solve 1 g of compound (1): 25° C. within 30 minutes. How it is done:
as §1, §2, §3

A short description of data set [3]: Physical properties of the β-type crystal (crystal form stability, hygroscopicity).
Where [4] appears, read: Britton-Robinson Buffer pH 3, I=0.3.
Where [5] appears, read: Britton-Robinson Buffer pH 5, I=0.3.
Setting [6] is: Britton-Robinson Buffer pH 7, I=0.3.
The mark [7] stands for this setting: Britton-Robinson Buffer pH 9, I=0.3.
[8] abbreviates: Britton-Robinson Buffer pH 11, I=0.3.

In the case of `NS(=O)(=O)c1ccc(S(=O)(=O)Nc2cccc3c(Cl)c[nH]c23)cc1` [compound (1) (β-type crystal), N-(3-chloro-1H-indol-7-yl)-4-sulfamoylbenzenesulfonamide], the “Solvent amount (ml) required to solve 1 g of compound (1)” value (“Solvent amount (ml) required” for short) was above 10000 mL in data set [1] (1-octanol); 14 mL in data set [1] (Acetone); 74 mL in data set [1] (Acetonitrile); 373 mL in data set [1] (Ethanol); 322 mL in data set [1] (Ethyl acetate); above 10000 mL in data set [1] (Heptane). The “Solvent amount (ml) required” value was above 10000 mL in data set [1] (Isopropylether); 60 mL in data set [1] (Methanol); 6 mL in data set [1] (N,N-dimethylformamide); above 10000 mL in data set [1] (Water); above 10000 mL in data set [2] (setting [4]); above 10000 mL in data set [2] (setting [5]). Besides, the “Solvent amount (ml) required” value in data set [2] (setting [6]) was above 10000 mL; in data set [2] (setting [7]) it was above 10000 mL; in data set [2] (setting [8]), 553 mL. For the same compound, the “solubility in various organic solvents in comparison with the α-type crystal” value in data set [1] (for example, ethanol, ethyl acetate) is recorded as “high solubility”. The “solubility in the buffer solution compared with the α-type crystal” value in data set [2] (Britton-Robinson Buffer, ionic strength 0.3) is on record as “higher solubility”. For the same compound, the hygroscopicity entry in data set [3] was “non hygroscopicity”. Further, the “stability of the crystal form” value in data set [3] (transformation into other crystal forms or amorphous forms) is recorded as “stable”.

For the compound `NS(=O)(=O)c1ccc(S(=O)(=O)Nc2cccc3c(Cl)c[nH]c23)cc1` [compound (1) (α-type crystal), N-(3-chloro-1H-indol-7-yl)-4-sulfamoylbenzenesulfonamide, reference compound], the “Solvent amount (ml) required” value was above 10000 mL in data set [1] (1-octanol); 21 mL in data set [1] (Acetone); 97 mL in data set [1] (Acetonitrile); 1194 mL in data set [1] (Ethanol); 1090 mL in data set [1] (Ethyl acetate); above 10000 mL in data set [1] (Heptane). Besides, the “Solvent amount (ml) required” value is above 10000 mL in data set [1] (Isopropylether); 100.4 mL in data set [1] (Methanol); 9.6 mL in data set [1] (N,N-dimethylformamide); above 10000 mL in data set [1] (Water); above 10000 mL in data set [2] (setting [4]); above 10000 mL in data set [2] (setting [5]). The “Solvent amount (ml) required” value is above 10000 mL in data set [2] (setting [6]), above 10000 mL in data set [2] (setting [7]) and 993 mL in data set [2] (setting [8]).
